Source: patent US10213415B2, “Compounds as opioid receptor modulators” (JANSSEN PHARMACEUTICA NV, priority 2004, dated 2019)
“And” between values parts separate entries of the source, which are not always exact repeats. Identical values can stand only once. Like-named read-outs stand apart in the source and are kept apart here.

Assays:
[1] = molecular target: T1, delta opioid receptor (NG108-15 cell membranes) (Mus musculus, UniProt P32300); test: Delta Opioid Receptor Functional Assay: [35S]GTPγS Binding in NG108-15 Cell Membranes, Version 2; assay type: biochemical; details: for DOR GTP-binding Assay v2 (% I): % inhibition of agonist-stimulated GTPγS binding
T1 construct: NG108-15 cell membranes were purchased from Applied Cell Sciences (Rockville, Md.); host or cells: NG108-15 cells (membranes purchased)
Method in brief: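 SPA-coupled NG108-15 membranes (37.5 μg/ml) were incubated with 0.1 nM [35S]GTPγS and 100 μM GDP in Tris pH 7.6, 5 mM MgCl2, 100 mM NaCl, with increasing agonist concentrations; 10 μM unlabeled GTPγS defined nonspecific binding. EC50 from % of basal; inhibition as % of 1 μM SNC80 stimulation.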

[2] = molecular target: T2, mu opioid receptor (Rattus norvegicus, UniProt P33535); test: Rat Brain Mu Opioid Receptor Binding Assay (and Version 2a, [3H]DAMGO); details: rat forebrain membranes, margin of error 10-20%
T2 construct: from tissue; host or cells: forebrain of male Wistar rats
Method in brief: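 Rat forebrain membranes from male Wistar rats in 50 mM Tris-HCl pH 7.4 with 5 mM MgCl2 incubated with 0.8 nM [3H]DAMGO for 2.5 h at 25° C., then filtered and counted. Data given as % inhibition of specific binding at single concentrations or as Ki from concentration series.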

[3] = molecular target: T3, human delta subtype 2 opioid receptor (Homo sapiens, UniProt P41143); test: Human Delta Opioid Receptor Binding Assay (CHO membranes, 3H-Naltrindole); details: read-out: hKi δ
T3 construct: purchased Perkin Elmer RBHODM400UA; host or cells: Chinese Hamster Ovary cells (recombinant expression)
Method in brief: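 Filtration binding on CHO-cell membranes expressing the human receptor, in 50 mM Tris pH 7.5 with 5 mM MgCl2, 30 min at room temperature; 3H-naltrindole diluted to 6 nM before mixing 1:1 with compound. Nonspecific binding defined with 1 μM unlabelled naltrindole; inhibition relative to no-inhibitor wells.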

[4] = NG108-15 cell membranes, [35S]GTPγS, version 2, read-out: DOR GTP-binding Assay_v2_ EC50
[5] = NG108-15 cell membranes, version 2

T1 sequence (P32300 whole entry): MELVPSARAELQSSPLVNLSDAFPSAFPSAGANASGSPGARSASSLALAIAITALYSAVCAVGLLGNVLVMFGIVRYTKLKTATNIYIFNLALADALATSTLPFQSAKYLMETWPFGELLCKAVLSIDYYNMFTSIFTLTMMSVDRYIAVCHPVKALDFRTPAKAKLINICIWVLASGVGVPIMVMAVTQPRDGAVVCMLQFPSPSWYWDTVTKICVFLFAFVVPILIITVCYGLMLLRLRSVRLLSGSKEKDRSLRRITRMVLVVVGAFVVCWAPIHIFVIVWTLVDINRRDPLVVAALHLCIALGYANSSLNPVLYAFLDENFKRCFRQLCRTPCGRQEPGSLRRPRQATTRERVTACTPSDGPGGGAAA
T2 sequence (P33535 whole entry): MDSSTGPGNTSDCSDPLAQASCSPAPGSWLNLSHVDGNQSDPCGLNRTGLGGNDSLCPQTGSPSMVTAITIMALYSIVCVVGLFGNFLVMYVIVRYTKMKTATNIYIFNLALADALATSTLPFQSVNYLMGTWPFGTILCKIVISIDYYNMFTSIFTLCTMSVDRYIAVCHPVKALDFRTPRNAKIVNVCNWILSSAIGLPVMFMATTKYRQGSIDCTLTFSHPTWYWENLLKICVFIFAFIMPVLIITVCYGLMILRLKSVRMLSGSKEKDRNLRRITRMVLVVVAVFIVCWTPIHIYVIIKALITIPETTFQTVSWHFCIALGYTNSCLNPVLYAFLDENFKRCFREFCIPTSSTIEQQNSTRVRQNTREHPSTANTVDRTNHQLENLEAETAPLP
T3 sequence (P41143 whole entry): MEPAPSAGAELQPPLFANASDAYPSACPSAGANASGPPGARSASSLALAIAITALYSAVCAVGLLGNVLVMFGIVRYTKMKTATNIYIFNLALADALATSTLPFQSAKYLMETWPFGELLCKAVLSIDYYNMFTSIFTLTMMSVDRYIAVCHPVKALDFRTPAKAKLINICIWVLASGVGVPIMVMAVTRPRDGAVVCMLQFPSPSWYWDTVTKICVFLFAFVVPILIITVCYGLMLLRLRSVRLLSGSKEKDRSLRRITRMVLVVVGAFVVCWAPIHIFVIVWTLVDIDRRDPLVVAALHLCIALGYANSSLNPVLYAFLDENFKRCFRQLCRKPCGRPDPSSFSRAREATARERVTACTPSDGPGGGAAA

Compound	EC50 [1, 4] [nM]	DOR GTP-binding Assay v2 (% I) [1, 5] [%]	Ki ([2]; read-out: r Ki μ)	Ki [3]	EC50 [1] [nM]	Ki ([2]; r Ki μ)
Cc1cc(C(N)=O)cc(C)c1C[C@H](N)C(=O)N(Cc1cccc(C(=O)O)c1)[C@@H](C)c1nc(-c2ccccc2)c[nH]1 [Cpd 227]	> 10000	66.56	0.96 nM	–	–	–
C[C@H](c1nc(-c2ccccc2)c[nH]1)N(C)C(=O)[C@@H](N)Cc1ccc(C(N)=O)cc1 [Cpd 203]	–	–	29.1 nM	501 nM	–	–
Cc1cc(C(N)=O)cc(C)c1C[C@H](N)C(=O)N(Cc1ccc(C(=O)O)o1)[C@@H](C)c1nc(-c2ccccc2)c[nH]1 [Cpd 256]	> 10000	89.19	7.08 nM	–	–	–
Cc1cc(O)cc(C)c1C[C@H](N)C(=O)N(Cc1nc(-c2ccccc2)c[nH]1)C1CCCCC1 [Cpd 190]	–	–	2.61 nM	285 nM	–	–
COc1ccc(CN(Cc2nc(-c3ccccc3)c[nH]2)C(=O)[C@@H](N)Cc2ccc(C(N)=O)cc2)cc1C(=O)O [Cpd 5]	> 10000	47.12	1.19 nM	–	–	–
Cc1cc(O)cc(C)c1C[C@H](N)C(=O)N(Cc1nc(-c2ccccc2)c[nH]1)CC1CC1 [Cpd 192]	–	–	0.09 nM	–	–	–
Cc1cc(O)cc(C)c1C[C@H](N)C(=O)N(C)[C@@H](C)c1nc(Cc2ccccc2)c[nH]1 [Cpd 205]	–	–	0.14 nM	–	–	–
Cc1cc(O)cc(C)c1C[C@H](N)C(=O)N(Cc1nc(-c2ccc(F)cc2)c(C)[nH]1)C(C)C [Cpd 163]	–	–	0.03 nM	301 nM and 63 nM	–	–
COc1ccc(CN(C(=O)[C@@H](N)Cc2ccc(C(N)=O)cc2)[C@@H](C)c2nc(-c3ccccc3)c[nH]2)cc1C(=O)O [Cpd 4]	46	66.12	2.41 nM	–	–	–
Cc1cc(O)cc(C)c1C[C@H](N)C(=O)N(Cc1cccc(C(=O)O)c1)[C@@H](C)c1nc(-c2ccccc2)c[nH]1 [Cpd 48]	> 10000	108.36	0.14 nM	–	–	–
COc1ccc(CN(C(=O)[C@@H](N)Cc2ccc(O)cc2)[C@@H](C)c2nc(-c3ccccc3)c[nH]2)cc1C(=O)O [Cpd 261]	21	30.04	0.79 nM	–	–	–
COC(=O)c1ccc(CN(C(=O)[C@@H](N)Cc2ccc(C(N)=O)cc2)[C@@H](C)c2nc(-c3ccccc3)c[nH]2)o1 [Cpd 303]	95	23.85	3.87 nM	–	–	–
Cc1ccccc1-c1nc(CN(C(=O)[C@@H](N)Cc2c(C)cc(O)cc2C)C(C)C)[nH]c1C [Cpd 165]	–	–	0.07 nM	322 nM	–	–
Cc1cc(C(N)=O)cc(C)c1C[C@H](N)C(=O)N(Cc1ccccc1)[C@@H](C)c1nc(-c2ccccc2)c[nH]1 [Cpd 114]	–	–	0.26 nM	49 nM	–	–
COc1ccc(CN(C(=O)[C@@H](N)Cc2c(C)cc(C(N)=O)cc2C)[C@@H](C)c2nc(-c3ccc(I)cc3)c[nH]2)cc1C(=O)O [Cpd 289]	> 10000	86.27	0.25 nM	–	–	–
COC(=O)c1ccc(CN(C(=O)[C@@H](N)Cc2c(C)cc(C(N)=O)cc2C)[C@@H](C)c2nc(-c3ccccc3)c[nH]2)o1 [Cpd 257]	7.4	48.88	1.22 nM	–	–	–
Cc1cc(O)cc(C)c1C[C@H](N)C(=O)N(C)Cc1nc(-c2ccccc2)c[nH]1 [Cpd 199]	–	–	0.3 nM	209 nM	–	–
Cc1cc(O)cc(C)c1C[C@H](N)C(=O)N(C)[C@H](C)c1nc(-c2ccccc2)c[nH]1 [Cpd 206]	–	–	0.2 nM	275 nM	–	–
CCN(C(=O)[C@@H](N)Cc1ccc(O)cc1)[C@H](C)c1nc(-c2ccccc2)c[nH]1 [Cpd 214]	–	–	44 nM	–	–	–
COc1ccc(CN(C(=O)[C@@H](N)Cc2c(C)cc(C(N)=O)cc2C)[C@@H](C)c2nc(-c3ccccc3)c[nH]2)cc1C(=O)O [Cpd 18]	–	100	–	–	> 10000	0.75 nM and 1.1 nM

Compound	EC50 [1, 4] [nM]	DOR GTP-binding Assay v2 (% I) [1, 5] [%]	Ki ([2]; read-out: r Ki μ)	Ki [3]	EC50 [1] [nM]	Ki ([2]; r Ki μ)
C[C@H](c1nc(-c2ccccc2)c[nH]1)N(Cc1ccccc1)C(=O)[C@@H](N)Cc1ccc(O)cc1 [Cpd 221]	–	–	0.36 nM	–	–	–
CC(C)N(C(=O)[C@@H](N)Cc1ccc(O)cc1)[C@@H](C)c1nc(-c2ccccc2)c[nH]1 [Cpd 225]	–	–	0.73 nM	–	–	–
CC(C)N(Cc1nc(-c2ccccc2)c[nH]1)C(=O)[C@@H](N)Cc1ccc(O)cc1 [Cpd 195]	–	–	9.29 nM	> 10000 nM	–	–
CCN(C(=O)[C@@H](N)Cc1c(C)cc(O)cc1C)[C@H](C)c1nc(-c2ccccc2)c[nH]1 [Cpd 217]	–	–	1.08 nM	506 nM	–	–
CCN(C(=O)[C@@H](N)Cc1c(C)cc(O)cc1C)[C@@H](C)c1nc(-c2ccccc2)c[nH]1 [Cpd 216]	–	–	0.04 nM	–	–	–
Cc1cc(O)cc(C)c1C[C@H](N)C(=O)N(Cc1nc(-c2cc(C(F)(F)F)cc(C(F)(F)F)c2)c(C)[nH]1)C(C)C [Cpd 164]	–	–	0.38 nM	–	–	–
CCN(C(=O)[C@@H](N)Cc1ccc(O)cc1)[C@@H](C)c1nc(-c2ccccc2)c[nH]1 [Cpd 215]	–	–	0.43 nM	–	–	–
Cc1cc(C(N)=O)cc(C)c1C[C@H](N)C(=O)N(Cc1cccc(-c2nnn[nH]2)c1)[C@@H](C)c1nc(-c2ccccc2)c[nH]1 [Cpd 242]	> 10000	91.45	0.59 nM	–	–	–
C[C@@H](c1nc(-c2ccccc2)c[nH]1)N(Cc1ccccc1)C(=O)[C@@H](N)Cc1ccc(O)cc1 [Cpd 219]	–	–	0.87 nM	–	–	–
Cc1cc(O)cc(C)c1C[C@H](N)C(=O)N(Cc1nc(-c2ccccc2)c[nH]1)C(C)C [Cpd 194]	–	–	0.06 nM	103 nM	–	–
COc1ccc(CN(C(=O)[C@@H](N)Cc2c(C)cc(C(N)=O)cc2C)[C@@H](C)c2nc(-c3ccccc3)c[nH]2)cc1-c1nnn[nH]1 [Cpd 8]	> 10000	94.03	0.51 nM	–	–	–
Cc1cc(O)cc(C)c1C[C@H](N)C(=O)N(Cc1ccnc2ccccc12)[C@@H](C)c1nc(-c2ccccc2)c[nH]1 [Cpd 246]	0.3	47.01	0.15 nM	–	–	–
Cc1cc(O)cc(C)c1C[C@H](N)C(=O)N(C)[C@@H](C)c1nc(-c2ccccc2)c[nH]1 [Cpd 207]	–	–	0.05 nM and 0.08 nM and 0.1 nM	132 nM	–	–
Cc1cc(O)cc(C)c1C[C@H](N)C(=O)N(Cc1nc(-c2ccccc2)c(C)[nH]1)C(C)C [Cpd 166]	–	–	0.03 nM and 0.07 nM	300 nM and 375 nM	–	–
COc1ccc(CN(C(=O)[C@@H](N)Cc2c(C)cc(C(N)=O)cc2C)[C@@H](C)c2nc(-c3ccccc3)c[nH]2)cc1OC [Cpd 75]	1.4	65.35	0.51 nM	8.5 nM	–	–
COc1ccc(CN(C(=O)[C@@H](N)Cc2c(C)cc(O)cc2C)[C@@H](C)c2nc(-c3ccccc3)c[nH]2)cc1C(=O)O [Cpd 260]	> 10000	100.97	0.24 nM	–	–	–
Cc1cc(C(N)=O)cc(C)c1C[C@H](N)C(=O)N(Cc1ccc(C(=O)O)cc1)[C@@H](C)c1nc(-c2ccccc2)c[nH]1 [Cpd 50]	1.4	60.27	1.68 nM	–	–	–
Cc1cc(O)cc(C)c1C[C@H](N)C(=O)N(Cc1ccccc1)[C@@H](C)c1nc(-c2ccccc2)c[nH]1 [Cpd 218]	–	–	0.03 nM	189 nM	–	–
COC(=O)c1cc(CN(C(=O)[C@@H](N)Cc2c(C)cc(C(N)=O)cc2C)[C@@H](C)c2nc(-c3ccccc3)c[nH]2)ccc1OC [Cpd 17]	1.3	68.64	0.22 nM	–	–	–
